Assay results: the NIST ThermoML archive (doi:10.1021/je8008182)
± gives the expanded uncertainty stated by the source.

Test: xn = mol fraction of the nth substance listed
Settings: 101 kPa, Liquid; for viscosity: Capillary tube (Ostwald / Ubbelohde) method; for mass density: Pycnometric method

Cc1ccncc1 [4-methylpyridine] + O
Settings | mass density [kg/m3] | viscosity [mPa·s]
298.15 K, x1 = 0.0211 | 996.2 ± 0.4 | 1.172 ± 0.01
298.15 K, x1 = 0.0489 | 993.6 ± 0.5 | 1.499 ± 0.013
298.15 K, x1 = 0.1143 | 991.3 ± 0.5 | 2.141 ± 0.017
298.15 K, x1 = 0.225 | 984.8 ± 0.8 | 2.602 ± 0.021
298.15 K, x1 = 0.3111 | 983 ± 0.6 | 2.521 ± 0.022
298.15 K, x1 = 0.4 | 978.9 ± 0.9 | 2.202 ± 0.021
298.15 K, x1 = 0.5 | 970.4 ± 1 | 1.88 ± 0.017
298.15 K, x1 = 0.6353 | 964.1 ± 0.8 | 1.539 ± 0.015
298.15 K, x1 = 0.75 | 961.4 ± 0.8 | 1.379 ± 0.013
298.15 K, x1 = 0.9 | 958.7 ± 0.7 | 1.09 ± 0.0097
298.15 K, x1 = 1 | 955.4 ± 0.7 | 0.8723 ± 0.0077
303.15 K, x1 = 0.0211 | 994.2 ± 0.4 | 1.037 ± 0.0098
303.15 K, x1 = 0.0489 | 991.2 ± 0.5 | 1.325 ± 0.012
303.15 K, x1 = 0.1143 | 987.9 ± 0.6 | 1.844 ± 0.018
303.15 K, x1 = 0.225 | 981.2 ± 0.6 | 2.238 ± 0.021
303.15 K, x1 = 0.3111 | 978.7 ± 0.7 | 2.164 ± 0.02
303.15 K, x1 = 0.4 | 972.1 ± 0.7 | 1.904 ± 0.017
303.15 K, x1 = 0.5 | 965.4 ± 0.5 | 1.657 ± 0.014
303.15 K, x1 = 0.6353 | 959.8 ± 0.7 | 1.381 ± 0.012
303.15 K, x1 = 0.75 | 956.4 ± 0.8 | 1.16 ± 0.011
303.15 K, x1 = 0.9 | 953.8 ± 1 | 0.9871 ± 0.01
303.15 K, x1 = 1 | 951.1 ± 1.1 | 0.8175 ± 0.0073
308.15 K, x1 = 0.0211 | 992.1 ± 0.5 | 0.9037 ± 0.0084
308.15 K, x1 = 0.0489 | 988.3 ± 0.5 | 1.165 ± 0.011
308.15 K, x1 = 0.1143 | 984.5 ± 0.6 | 1.58 ± 0.015
308.15 K, x1 = 0.225 | 977.6 ± 0.7 | 1.924 ± 0.018
308.15 K, x1 = 0.3111 | 974.2 ± 0.7 | 1.9 ± 0.018
308.15 K, x1 = 0.4 | 970.7 ± 0.6 | 1.789 ± 0.015
308.15 K, x1 = 0.5 | 964.9 ± 0.5 | 1.595 ± 0.013
308.15 K, x1 = 0.6353 | 955.3 ± 0.8 | 1.247 ± 0.011
308.15 K, x1 = 0.75 | 950.5 ± 0.8 | 1.068 ± 0.0095
308.15 K, x1 = 0.9 | 946 ± 0.9 | 0.7846 ± 0.0083
308.15 K, x1 = 1 | 941.3 ± 1.1 | 0.7774 ± 0.0069
313.15 K, x1 = 0.0211 | 990 ± 0.5 | 0.8272 ± 0.0074
313.15 K, x1 = 0.0489 | 986 ± 0.5 | 1.044 ± 0.0095
313.15 K, x1 = 0.1143 | 980.9 ± 0.6 | 1.4 ± 0.013
313.15 K, x1 = 0.225 | 973.2 ± 0.7 | 1.682 ± 0.016
313.15 K, x1 = 0.3111 | 969.5 ± 0.7 | 1.649 ± 0.016
313.15 K, x1 = 0.4 | 965.9 ± 0.8 | 1.561 ± 0.015
313.15 K, x1 = 0.5 | 960.5 ± 0.7 | 1.419 ± 0.013
313.15 K, x1 = 0.6353 | 950.5 ± 0.8 | 1.129 ± 0.01
313.15 K, x1 = 0.75 | 945.9 ± 0.7 | 0.9708 ± 0.0088
313.15 K, x1 = 0.9 | 941.6 ± 0.7 | 0.7395 ± 0.0066
313.15 K, x1 = 1 | 936.6 ± 0.8 | 0.7368 ± 0.0067
318.15 K, x1 = 0.0211 | 987.5 ± 0.5 | 0.7494 ± 0.0069
318.15 K, x1 = 0.0489 | 983.3 ± 0.6 | 0.9363 ± 0.0085
318.15 K, x1 = 0.1143 | 977.1 ± 0.6 | 1.234 ± 0.011
318.15 K, x1 = 0.225 | 969 ± 0.7 | 1.467 ± 0.014
318.15 K, x1 = 0.3111 | 965 ± 0.7 | 1.441 ± 0.013
318.15 K, x1 = 0.4 | 961.2 ± 0.8 | 1.365 ± 0.013
318.15 K, x1 = 0.5 | 955.7 ± 0.8 | 1.263 ± 0.011
318.15 K, x1 = 0.6353 | 945.9 ± 0.8 | 1.019 ± 0.009
318.15 K, x1 = 0.75 | 941.4 ± 0.8 | 0.8874 ± 0.0081
318.15 K, x1 = 0.9 | 937 ± 0.8 | 0.6952 ± 0.0063
318.15 K, x1 = 1 | 932.1 ± 0.7 | 0.6855 ± 0.0063
323.15 K, x1 = 0.0211 | 985 ± 0.5 | 0.6775 ± 0.0063
323.15 K, x1 = 0.0489 | 980.3 ± 0.6 | 0.8486 ± 0.0078
323.15 K, x1 = 0.1143 | 973.4 ± 0.7 | 1.099 ± 0.01
323.15 K, x1 = 0.225 | 964.8 ± 0.7 | 1.304 ± 0.012
323.15 K, x1 = 0.3111 | 960.7 ± 0.7 | 1.279 ± 0.012
323.15 K, x1 = 0.4 | 956.5 ± 0.8 | 1.207 ± 0.011
323.15 K, x1 = 0.5 | 951 ± 0.8 | 1.136 ± 0.01
323.15 K, x1 = 0.6353 | 941.4 ± 0.8 | 0.9623 ± 0.0085
323.15 K, x1 = 0.75 | 936.7 ± 0.8 | 0.8112 ± 0.0074
323.15 K, x1 = 0.9 | 932.5 ± 0.8 | 0.6516 ± 0.006
323.15 K, x1 = 1 | 927.7 ± 0.8 | 0.6505 ± 0.0061
328.15 K, x1 = 0.0211 | 983 ± 0.6 | 0.6136 ± 0.0058
328.15 K, x1 = 0.0489 | 977.3 ± 0.6 | 0.762 ± 0.0074
328.15 K, x1 = 0.1143 | 969.5 ± 0.7 | 0.9781 ± 0.0088
328.15 K, x1 = 0.225 | 960.4 ± 0.7 | 1.147 ± 0.01
328.15 K, x1 = 0.3111 | 956 ± 0.8 | 1.119 ± 0.01
328.15 K, x1 = 0.4 | 952 ± 0.8 | 1.069 ± 0.0098
328.15 K, x1 = 0.5 | 946.3 ± 0.8 | 1.007 ± 0.0092
328.15 K, x1 = 0.6353 | 936.7 ± 0.8 | 0.8648 ± 0.0083
328.15 K, x1 = 0.75 | 932.1 ± 0.8 | 0.7423 ± 0.0068
328.15 K, x1 = 0.9 | 927.8 ± 0.8 | 0.6014 ± 0.0058
328.15 K, x1 = 1 | 923.2 ± 0.8 | 0.5905 ± 0.0058
333.15 K, x1 = 0.0211 | 979.3 ± 0.6 | 0.5649 ± 0.0052
333.15 K, x1 = 0.0489 | 974.1 ± 0.6 | 0.6555 ± 0.0063
333.15 K, x1 = 0.1143 | 965.8 ± 0.7 | 0.8941 ± 0.0081
333.15 K, x1 = 0.225 | 956.4 ± 0.7 | 1.037 ± 0.0092
333.15 K, x1 = 0.3111 | 951.4 ± 0.8 | 1.008 ± 0.0091
333.15 K, x1 = 0.4 | 947.5 ± 0.8 | 0.9636 ± 0.0088
333.15 K, x1 = 0.5 | 941.6 ± 0.8 | 0.9199 ± 0.0083
333.15 K, x1 = 0.6353 | 931.9 ± 0.8 | 0.7522 ± 0.0072
333.15 K, x1 = 0.75 | 927.3 ± 0.8 | 0.6899 ± 0.0063
333.15 K, x1 = 0.9 | 923 ± 0.8 | 0.5378 ± 0.0053
333.15 K, x1 = 1 | 918.5 ± 0.8 | 0.5329 ± 0.0054
338.15 K, x1 = 0.0211 | 976.3 ± 0.6 | 0.5403 ± 0.0051
338.15 K, x1 = 0.0489 | 970.8 ± 0.6 | 0.6149 ± 0.0055
338.15 K, x1 = 0.1143 | 961.7 ± 0.6 | 0.8036 ± 0.0085
338.15 K, x1 = 0.225 | 952.2 ± 0.6 | 0.9466 ± 0.0096
338.15 K, x1 = 0.3111 | 946.9 ± 0.7 | 0.9064 ± 0.0084
338.15 K, x1 = 0.4 | 942.8 ± 0.8 | 0.8656 ± 0.008
338.15 K, x1 = 0.5 | 936.7 ± 0.9 | 0.8403 ± 0.0083
338.15 K, x1 = 0.6353 | 927.5 ± 0.6 | 0.6948 ± 0.0061
338.15 K, x1 = 0.75 | 922.6 ± 0.7 | 0.641 ± 0.0063
338.15 K, x1 = 0.9 | 918.5 ± 0.9 | 0.4964 ± 0.0046
338.15 K, x1 = 1 | 914 ± 0.8 | 0.4815 ± 0.005
